Results as given in the NIST ThermoML archive (doi:10.1016/j.jct.2009.06.014).

Experiment: xn = mol fraction of the nth substance listed
Conditions: 101 kPa, Liquid, Vibrating tube method

C1CCOC1 [tetrahydrofuran] + O
mass density [kg/m3]
Conditions | 293.15 K | 298.15 K | 303.15 K | 308.15 K | 313.15 K | 318.15 K | 323.15 K | 328.15 K | 333.15 K
x2 = 0 | 889.47 | 885.04 | 880.76 | 876.63 | 872.62 | 868.72 | 864.91 | 861.19 | 855.57
x2 = 0.307 | 909.02 | 904.73 | 900.6 | 896.6 | 892.72 | 888.93 | 885.23 | 881.59 | 878.02
x2 = 0.5048 | 927.43 | 923.37 | 919.45 | 915.67 | 912.03 | 908.48 | 905.02 | 901.65 | 898.3
x2 = 0.6429 | 944.68 | 940.84 | 937.15 | 933.61 | 930.19 | 926.87 | 923.65 | 920.5 | 917.43
x2 = 0.8027 | 968.99 | 965.85 | 962.77 | 959.82 | 956.98 | 954.25 | 951.59 | 949.01 | 946.48
x2 = 0.8555 | 979.39 | 976.67 | 974.08 | 971.62 | 969.26 | 966.98 | 964.79 | 962.66 | 960.59
x2 = 0.9025 | 987.96 | 986.24 | 984.38 | 982.6 | 980.91 | 979.36 | 977.79 | 976.28 | 974.8
x2 = 0.9402 | 992.74 | 991.5 | 990.32 | 989.18 | 988.11 | 987.04 | 986 | 985.02 | 983.98
x2 = 0.9719 | 995.94 | 995.45 | 994.98 | 994.52 | 994.07 | 993.63 | 993.19 | 992.76 | 992.33
